Publication PMC9181698 (International Journal of Molecular Sciences, 2022)

Experiments:
[1] = tested on: SIV pseudotyped with the SARS-CoV-2 spike protein (Omicron); conditions: SIV pseudotyped with the spike protein (Omicron, 48 h)
[2] = tested on: SIV pseudotyped with the SARS-CoV-2 spike protein (Beta); conditions: SIV pseudotyped with the spike protein (Beta, 48 h)
[3] = tested on: SIV pseudotyped with the SARS-CoV-2 spike protein (wt); conditions: SIV pseudotyped with the spike protein (wt, 48 h)
[4] = tested on: SIV pseudotyped with the SARS-CoV-2 spike protein (Alpha); conditions: SIV pseudotyped with the spike protein (Alpha, 48 h)
[5] = tested on: ACE2–RBD interaction (Omicron variant RBD-Fc / His-tagged hACE2); type: biochemical, SARS-CoV-2; conditions: read-out: Inhibition of ACE2–RBD Interaction
[6] = tested on: SIV pseudotyped with the SARS-CoV-2 spike protein (Delta); conditions: SIV pseudotyped with the spike protein (Delta, 48 h)
[7] = tested on: pseudovirus with wt SARS-CoV-2 spike carrying E484K + N501Y
[8] = tested on: pseudovirus with wt SARS-CoV-2 spike carrying K417N

Row | Structure (SMILES) | IC50 [1] [nM] | IC50 [2] [nM] | IC50 [3] [nM] | IC50 [4] [nM] | IC50 [5] [nM] | IC50 [6] [nM] | Reduction in inhibitory activity (virus neutralization) by combination of E484K and N501N [7] | Decrease of susceptibility of the virus to inhibition by mutation K417N, factor [8]
1 | CC[C@H](C)[C@H](NC(=O)[C@H](CC(C)C)NC(=O)[C@H](CC(=O)O)NC(=O)[C@H](CO)NC(=O)[C@@H](NC(=O)[C@H](CCCNC(=N)N)NC(=O)[C@H](CCSC)NC(=O)[C@H](CO)NC(=O)[C@H](C)NC(=O)[C@H](CCC(=O)O)NC(=O)[C@H](C)NC(=O)[C@H](Cc1c[nH]cn1)NC(=O)CNC(=O)[C@H](CC(C)C)NC(=O)[C@H](CCC(=O)O)NC(=O)[C@H](CC(=O)O)NC(=O)[C@H](CC(C)C)NC(=O)[C@H](CC(C)C)NC(=O)[C@H](CCCNC(=N)N)NC(=O)[C@H](CCSC)NC(=O)[C@@H](NC(=O)[C@H](CCC(=O)O)NC(=O)[C@H](Cc1ccc(O)cc1)NC(=O)[C@@H](NC(=O)[C@H](CCCCN)NC(=O)[C@H](CCC(N)=O)NC(=O)[C@H](CC(C)C)NC(=O)[C@@H](NC(=O)[C@H](Cc1c[nH]c2ccccc12)NC(=O)[C@H](CCC(=O)O)NC(=O)[C@H](CCCCN)NC(=O)[C@H](CC(=O)O)NC(=O)COCCOCCNC(=O)CCCC[C@@H]1SC[C@@H]2NC(=O)N[C@@H]21)[C@@H](C)CC)[C@@H](C)CC)[C@@H](C)CC)C(C)C)C(=O)N[C@@H](Cc1ccc(O)cc1)C(=O)N[C@@H](CCC(=O)O)C(=O)N[C@@H](Cc1ccccc1)C(N)=O [LW32.4] | > 500 | > 500 | 11.8 ± 3.5 | > 500 | […] | 10.2 ± 1.78 | – | –
2 | CC[C@H](C)[C@H](NC(=O)[C@H](CC(C)C)NC(=O)[C@H](CC(=O)O)NC(=O)[C@H](CO)NC(=O)[C@@H](NC(=O)[C@H](CCCNC(=N)N)NC(=O)[C@H](CCSC)NC(=O)[C@H](CO)NC(=O)[C@H](C)NC(=O)[C@H](CCC(=O)O)NC(=O)[C@H](C)NC(=O)[C@H](Cc1c[nH]cn1)NC(=O)CNC(=O)[C@H](CC(C)C)NC(=O)[C@H](CCC(=O)O)NC(=O)[C@H](CC(=O)O)NC(=O)[C@H](CC(C)C)NC(=O)[C@H](CC(C)C)NC(=O)[C@H](CCCNC(=N)N)NC(=O)[C@H](CCSC)NC(=O)[C@@H](NC(=O)[C@H](CCC(=O)O)NC(=O)[C@H](Cc1ccc(O)cc1)NC(=O)[C@@H](NC(=O)[C@H](CCCCN)NC(=O)[C@H](CCC(N)=O)NC(=O)[C@H](CC(C)C)NC(=O)[C@@H](NC(=O)[C@H](Cc1c[nH]c2ccccc12)NC(=O)[C@H](CCC(=O)O)NC(=O)[C@H](CCCCN)NC(=O)[C@H](CC(=O)O)NC(=O)COCCOCCNC(=O)CCCC[C@@H]1SC[C@@H]2NC(=O)N[C@@H]21)[C@@H](C)CC)[C@@H](C)CC)[C@@H](C)CC)C(C)C)C(=O)N[C@@H](Cc1ccc(O)cc1)C(=O)N[C@@H](CCC(=O)O)C(=O)N[C@@H](Cc1ccccc1)C(=O)N[C@@H](CCSC)C(=O)N[C@@H](CCCCN)C(N)=O [LW32.2] | > 500 | > 500 | 0.93 ± 0.24 | 6.15 ± 5.96 | […] | 1.54 ± 0.23 | nine | 25
3 | CC[C@H](C)[C@@H]1NC(=O)[C@H](CC(C)C)NC(=O)[C@H](CC(=O)O)NC(=O)[C@H](CO)NC(=O)[C@H](C(C)C)NC(=O)[C@H](CCCNC(=N)N)NC(=O)[C@H](CCSC)NC(=O)[C@H](CO)NC(=O)[C@H](C)NC(=O)[C@H](CCC(=O)O)NC(=O)[C@H](C)NC(=O)[C@H](Cc2c[nH]cn2)NC(=O)CNC(=O)[C@H](CC(C)C)NC(=O)[C@H](CCC(=O)O)NC(=O)[C@H](CC(=O)O)NC(=O)[C@H](CC(C)C)NC(=O)[C@H](CC(C)C)NC(=O)[C@H](CCCNC(=N)N)NC(=O)[C@H](CCSC)NC(=O)[C@H]([C@@H](C)CC)NC(=O)[C@H](CCC(=O)O)NC(=O)[C@H](Cc2ccc(O)cc2)NC(=O)[C@H]([C@@H](C)CC)NC(=O)[C@H](CCCCN)NC(=O)[C@H](CCC(N)=O)NC(=O)[C@H](CC(C)C)NC(=O)[C@H]([C@@H](C)CC)NC(=O)[C@H](Cc2c[nH]c3ccccc23)NC(=O)[C@H](CCC(=O)O)NC(=O)[C@@H](NC(=O)COCCOCCNC(=O)CCCC[C@@H]2SC[C@@H]3NC(=O)N[C@@H]32)CSSC[C@@H](C(N)=O)NC(=O)[C@H](CCCCN)NC(=O)[C@H](CCCCN)NC(=O)[C@H](CCSC)NC(=O)[C@H](Cc2ccccc2)NC(=O)[C@H](CCC(=O)O)NC(=O)[C@H](Cc2ccc(O)cc2)NC1=O [LW25.13] | > 500 | > 500 | 0.63 ± 0.24 | 1.35 ± 0.08 | […] | 0.68 ± 0.12 | approximately three | –
4 | CC[C@H](C)[C@H](NC(=O)[C@H](CC(C)C)NC(=O)[C@H](CC(=O)O)NC(=O)[C@H](CO)NC(=O)[C@@H](NC(=O)[C@H](CCCNC(=N)N)NC(=O)[C@H](CCSC)NC(=O)[C@H](CO)NC(=O)[C@H](C)NC(=O)[C@H](CCC(=O)O)NC(=O)[C@H](C)NC(=O)[C@H](Cc1c[nH]cn1)NC(=O)CNC(=O)[C@H](CC(C)C)NC(=O)[C@H](CCC(=O)O)NC(=O)[C@H](CC(=O)O)NC(=O)[C@H](CC(C)C)NC(=O)[C@H](CC(C)C)NC(=O)[C@H](CCCNC(=N)N)NC(=O)[C@H](CCSC)NC(=O)[C@@H](NC(=O)[C@H](CCC(=O)O)NC(=O)[C@H](Cc1ccc(O)cc1)NC(=O)[C@@H](NC(=O)[C@H](CCCCN)NC(=O)[C@H](CCC(N)=O)NC(=O)[C@H](CC(C)C)NC(=O)[C@@H](NC(=O)[C@H](Cc1c[nH]c2ccccc12)NC(=O)[C@H](CCC(=O)O)NC(=O)[C@H](CCCCN)NC(=O)[C@H](CC(=O)O)NC(=O)COCCOCCNC(=O)COCCOCCNC(=O)CCCC[C@@H]1SC[C@@H]2NC(=O)N[C@@H]21)[C@@H](C)CC)[C@@H](C)CC)[C@@H](C)CC)C(C)C)C(=O)N[C@@H](Cc1ccc(O)cc1)C(=O)N[C@@H](CCC(=O)O)C(=O)N[C@@H](Cc1ccccc1)C(=O)N[C@@H](CCSC)C(=O)N[C@@H](CCCCN)C(=O)N[C@@H](CCCCN)C(=O)NCC(=O)N[C@@H](CC(=O)O)C(=O)N[C@@H](CCC(=O)O)C(=O)N[C@@H](CCCNC(=N)N)C(=O)N[C@@H](CC(C)C)C(=O)N[C@@H](CC(C)C)C(=O)N[C@@H](CCC(=O)O)C(=O)N[C@@H](CCC(=O)O)C(=O)N[C@@H](C)C(=O)N[C@@H](CCC(=O)O)C(=O)N[C@@H](CCCNC(=N)N)C(=O)N[C@@H](CC(C)C)C(=O)N[C@@H](CC(C)C)C(=O)N[C@@H](CCC(=O)O)C(=O)N[C@@H](CCC(=O)O)C(=O)N[C@H](C(=O)N[C@@H](CCC(=O)O)C(N)=O)C(C)C [LW25.3] | > 500 | > 500 | 5.94 ± 4.17 | 13.3 ± 4.55 | – | 4.52 ± 0.43 | – | –
5 | CC[C@H](C)[C@H](NC(=O)[C@H](CC(C)C)NC(=O)[C@H](CC(=O)O)NC(=O)[C@H](CO)NC(=O)[C@@H](NC(=O)[C@H](CCCNC(=N)N)NC(=O)[C@H](CCSC)NC(=O)[C@H](CO)NC(=O)[C@H](C)NC(=O)[C@H](CCC(=O)O)NC(=O)[C@H](C)NC(=O)[C@H](Cc1c[nH]cn1)NC(=O)CNC(=O)[C@H](CC(C)C)NC(=O)[C@H](CCC(=O)O)NC(=O)[C@H](CC(=O)O)NC(=O)[C@H](CC(C)C)NC(=O)[C@H](CC(C)C)NC(=O)[C@H](CCCNC(=N)N)NC(=O)[C@H](CCSC)NC(=O)[C@@H](NC(=O)[C@H](CCC(=O)O)NC(=O)[C@H](Cc1ccc(O)cc1)NC(=O)[C@@H](NC(=O)[C@H](CCCCN)NC(=O)[C@H](CCC(N)=O)NC(=O)[C@H](CC(C)C)NC(=O)[C@@H](NC(=O)[C@H](Cc1c[nH]c2ccccc12)NC(=O)[C@H](CCC(=O)O)NC(=O)[C@H](CCCCN)NC(=O)[C@H](CC(=O)O)NC(=O)COCCOCCNC(=O)CCCC[C@@H]1SC[C@@H]2NC(=O)N[C@@H]21)[C@@H](C)CC)[C@@H](C)CC)[C@@H](C)CC)C(C)C)C(=O)N[C@@H](Cc1ccc(O)cc1)C(=O)N[C@@H](CCC(=O)O)C(=O)N[C@@H](Cc1ccccc1)C(=O)N[C@@H](CCSC)C(=O)N[C@@H](CCCCN)C(=O)N[C@@H](CCCCN)C(=O)NCC(N)=O [LW25.1] | > 500 | > 500 | 1.7 ± 0.11 | 8.38 ± 3.31 | […] | 0.71 ± 0.23 | – | –
